The subject of one assay is TFEB. Nature of the assay: TFEB translocation assay (TFEB reporter in U2OS cells, imaging). It is filed as cell-based. The settings on record: Homo sapiens; U2OS cell line with TFEB reporter, 2 hours incubation, nucleus to cytoplasm ratio, normalized to Torin-1; read-out: TFEB Translocation pEC50 (converted). The method, then: Example B: TFEB Translocation Assay
Reporter TFEB: the reporter is fused to a sequence of monomeric red fluorescent protein.
The reporter TFEB have been stably expressed in U2OS cell line and used as read-out.
Experiments were performed in 384 MTP well format. Cells were seeded in 384-w at a density of 4000 cells/well in 20 μl/well complete growth medium without antibiotics. Twenty-four hours later, cells were treated with compounds and incubated for further 2 hours. Then the cells were imaged and assayed for the response to various compounds using the reporter for TFEB expressed in the cells as readout.
The experiments were performed in a 384-well format according to the following procedure: • 24 h after seeding, cell culture medium was carefully removed and replaced with 20 μl of Opti-MEM (30′ incubation at 37° C. before compound addition) • Then, cells were incubated with compounds diluted in Opti-MEM+0.015% Tween 80 at the desired concentration, with the reference molecule (agonist) Torin-1 at a top concentration of 1 μM (max signal), and with the other reference molecule (agonist) MLSA-5 at top concentration of 20 μM for 2 hours at 37° C. and 5% CO2. The final percentage of DMSO was 0.5% in all the conditions. • Staining of the nuclei was obtained by incubating the cells with 24 μM/well of Hoechst 3342 in standard Tyrode's buffer for 15 min at RT • Then the cells were fixed with PFA 4% for 30 min at RT • After three washes with standard Tyrode's buffer, samples were acquired by recording two fluorescence emission channels (DS-red and blue) at 20× magnification and with at least 3 fields of view per well in an Operetta CLS microscope (PerkinElmer). • Image analysis was performed by using Harmony software (PerkinElmer). The image analysis involved the following steps: flat-field illumination correction, nuclei segmentation, cytoplasm segmentation and calculation of intensity fluorescence in the cytosol and nuclei compartments. Measurements of signal intensity ratio (nucleus to cytoplasm) was used to obtain information on the effects of compounds on the TFEB translocation. • Data from image analysis measurements were finally loaded and analyzed for normalization and fitting procedures in Genedata Screener© software. Data Analysis
Feature: Mean translocation ratio (mean/well)
Data normalization: Stimulator—Neutral control
The GeneData Screener method we have used, normalizes the median of the Stimulator control wells (Torin-1) to 100% and the median of the Neutral control wells (DMSO) to 0% Activity[%]=100*(x−<Min>)/(<“Max”>−<Min>)

The target in the next assay is T1, TRPML1 (Homo sapiens, UniProt Q9GZU1).
T1 construct: expressed in transfected cells; host or cells: HEK T-REx cells stably expressing GCaMP6f and TRPML1
T1 sequence (Q9GZU1 whole entry): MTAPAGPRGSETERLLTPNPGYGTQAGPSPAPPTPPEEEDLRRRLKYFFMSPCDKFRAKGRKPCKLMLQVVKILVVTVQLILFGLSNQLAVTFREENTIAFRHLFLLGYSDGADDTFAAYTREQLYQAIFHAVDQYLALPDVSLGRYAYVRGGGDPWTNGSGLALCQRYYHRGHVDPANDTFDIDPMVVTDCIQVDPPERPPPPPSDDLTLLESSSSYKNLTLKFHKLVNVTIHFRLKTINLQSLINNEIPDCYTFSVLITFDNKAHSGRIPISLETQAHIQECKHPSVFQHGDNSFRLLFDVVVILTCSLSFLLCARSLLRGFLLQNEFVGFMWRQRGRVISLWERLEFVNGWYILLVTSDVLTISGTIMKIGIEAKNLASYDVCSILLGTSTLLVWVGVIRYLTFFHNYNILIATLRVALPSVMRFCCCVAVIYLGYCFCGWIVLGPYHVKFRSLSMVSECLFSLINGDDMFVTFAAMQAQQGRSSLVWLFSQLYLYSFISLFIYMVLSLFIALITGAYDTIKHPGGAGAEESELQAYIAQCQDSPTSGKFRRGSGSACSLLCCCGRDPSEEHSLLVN
Nature of the assay: Cellular TRPML1 assay (FLIPR, GCaMP6f calcium read-out). In kind it is cell-based. Summed up: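 Read-out is GCaMP6f fluorescence over 300 s after compound addition in Ca2+-free Tyrode's buffer, final DMSO 0.5%, on FLIPR Tetra. Cells are HEK T-REx stably co-expressing the indicator and TRPML1, plated 24 h earlier in Optimem + 0.5% FBS and pre-incubated ~10 min at room temperature.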

Where [1] appears, read: HEKT-REx/GCaMP6f/TRPML1 cells, FLIPR TETRA, kinetic response over 300 seconds, read-out: TRPML1 FLIPR pEC50 (converted).

Like-named read-outs stand apart in the source and are kept apart here.

As for `CCC1(CC)CN(c2nc(C(=O)Nc3cc(O)c(OC4CC5CC(C5)C4)c(Cl)c3)c(CC(F)(F)F)o2)C1` (stereo not drawn) [Example 261, N-(4-(bicyclo[3.1.1]heptan-3-yloxy)-3-chloro-5-hydroxyphenyl)-2-(3,3-diethylazetidin-1-yl)-5-(2,2,2-trifluoroethyl)oxazole-4-carboxamide], the EC50 in the assay with TFEB and at TRPML1 (setting [1]) was 10 to 1000 nM throughout.

As for `O=C(Nc1ccc(OC2CCCC2(F)F)c(F)c1)c1nc(N2CCCC2)oc1CC(F)(F)F` (stereo not drawn) [Example 22, N-{4-[(2,2-difluorocyclopentyl)oxy]-3-fluorophenyl}-2-(pyrrolidin-1-yl)-5-(2,2,2-trifluoroethyl)oxazole-4-carboxamide], the EC50 in the assay with TFEB and at TRPML1 (setting [1]) was 10 to 1000 nM in each case.

As for `O=C(Nc1ccc(OC2CCOC2)c(F)c1)c1nc(N2CCCC2)oc1CC(F)(F)F` (stereo not drawn) [Example 47, N-[3-fluoro-4-(oxolan-3-yloxy)phenyl]-2-(pyrrolidin-1-yl)-5-(2,2,2-trifluoroethyl)oxazol-4-carboxamide], the EC50 in the assay with TFEB and on TRPML1 (setting [1]) was 1000 to 10000 nM in each case.

With `CN(c1ccc(NC(=O)c2nc(N3CCCC3)oc2CC(F)(F)F)cc1F)C1CCCC1(F)F` (stereo not drawn) [Example 82, N-{4-[(2,2-difluorocyclopentyl)(methyl)amino]-3-fluorophenyl}-2-(pyrrolidin-1-yl)-5-(2,2,2-trifluoroethyl)oxazole-4-carboxamide], the EC50 was 10 to 1000 nM in the assay on TFEB and 1000 to 10000 nM on TRPML1 (setting [1]).

Regarding `O=C(Nc1cc(F)c(OC2CC3C[C@@H]3C2)c(F)c1)c1nc(N2CC3COCC3C2)oc1CC(F)(F)F` (stereo partly drawn) [Example 186, N-(4-(cis-bicyclo[3.1.0]hexan-3-yloxy)-3,5-difluorophenyl)-2-(tetrahydro-1H-furo[3,4-c]pyrrol-5(3H)-yl)-5-(2,2,2-trifluoroethyl)oxazole-4-carboxamide], the EC50 with TFEB and on TRPML1 (setting [1]) was 10 to 1000 nM each time.

For `CCC1(CC)CN(c2nc(C(=O)Nc3cc(C)c(O[C@@H]4C[C@@H]5C[C@@H]5C4)c(F)c3)c(CCF)o2)C1` [Example 285, N-(4-(cis-bicyclo[3.1.0]hexan-3-yloxy)-3-fluoro-5-methylphenyl)-2-(3,3-diethylazetidin-1-yl)-5-(2-fluoroethyl)oxazole-4-carboxamide], the EC50 in the assay with TFEB and on TRPML1 (setting [1]) was 10 to 1000 nM in each case.

As for `Cc1oc(N2CCC3(CC3)C2)nc1C(=O)Nc1ccc(N2CCCCC2)c(F)c1` [Example 91, N-(3-fluoro-4-(piperidin-1-yl)phenyl)-5-methyl-2-(5-azaspiro[2.4]heptan-5-yl)oxazole-4-carboxamide], the EC50 in the assay on TFEB and on TRPML1 (setting [1]) was 1000 to 10000 nM each time.

In the case of `CCc1oc(N2CC(C)(CO)C2)nc1C(=O)Nc1cc(C)c(OC2CC3CC(C3)C2)c(F)c1` (stereo not drawn) [Example 224, N-(4-(bicyclo[3.1.1]heptan-3-yloxy)-3-fluoro-5-methylphenyl)-5-ethyl-2-(3-(hydroxymethyl)-3-methylazetidin-1-yl)oxazole-4-carboxamide], the EC50 in the assay with TFEB and on TRPML1 (setting [1]) was 10 to 1000 nM in each case.

As to `CCC1(CC)CN(c2nc(C(=O)Nc3cc(C)c(O[C@@H]4C[C@@H]5C[C@@H]5C4)c(F)c3)c(COC)o2)C1` [Example 293, N-(4-(cis-bicyclo[3.1.0]hexan-3-yloxy)-3-fluoro-5-methylphenyl)-2-(3,3-diethylazetidin-1-yl)-5-(methoxymethyl)oxazole-4-carboxamide], the EC50 with TFEB and on TRPML1 (setting [1]) was 10 to 1000 nM throughout.

In the case of `CC1CCC(Oc2ccc(NC(=O)c3nc(N4CCCC4)oc3CC(F)(F)F)cc2F)C1` (stereo not drawn) [Example 50, N-(3-fluoro-4-((3-methylcyclopentyl)oxy)phenyl)-2-(pyrrolidin-1-yl)-5-(2,2,2-trifluoroethyl)oxazole-4-carboxamide], the EC50 with TFEB and on TRPML1 (setting [1]) was 1000 to 10000 nM throughout.

Take `CC1(C)CCCC1Oc1ccc(NC(=O)c2nc(N3CCCC3)oc2CC(F)(F)F)cc1F` (stereo not drawn) [Example 55, N-(4-((2,2-dimethylcyclopentyl)oxy)-3-fluorophenyl)-2-(pyrrolidin-1-yl)-5-(2,2,2-trifluoroethyl)oxazole-4-carboxamide]: the EC50 in the assay with TFEB and on TRPML1 (setting [1]) was 1000 to 10000 nM each time.

For the compound `CCc1oc(N2CCCC2)nc1C(=O)Nc1cc(F)c(O[C@@H]2C[C@@H]3C[C@@H]3C2)c(F)c1` [Example 244, N-(4-(cis-bicyclo[3.1.0]hexan-3-yloxy)-3,5-difluorophenyl)-5-ethyl-2-(pyrrolidin-1-yl)oxazole-4-carboxamide], the EC50 with TFEB and on TRPML1 (setting [1]) was 10 to 1000 nM throughout.

For `CCC1(OC)CN(c2nc(C(=O)Nc3cc(F)c(OC4CC5CC(C5)C4)c(F)c3)c(CC(F)(F)F)o2)C1` (stereo not drawn) [Example 148, N-(4-(bicyclo[3.1.1]heptan-3-yloxy)-3,5-difluorophenyl)-2-(3-ethyl-3-methoxyazetidin-1-yl)-5-(2,2,2-trifluoroethyl)oxazole-4-carboxamide], the EC50 in the assay with TFEB and at TRPML1 (setting [1]) was 10 to 1000 nM in each case.

Consider `CCc1oc(N2CCCC2)nc1C(=O)Nc1cc(F)c(N2CC3CC(C3)C2)c(F)c1` [Example 255, N-(4-(3-azabicyclo[3.1.1]heptan-3-yl)-3,5-difluorophenyl)-5-ethyl-2-(pyrrolidin-1-yl)oxazole-4-carboxamide], for which the EC50 with TFEB and at TRPML1 was 10 to 1000 nM throughout.

`CCc1oc(N2CC(CC)(OC)C2)nc1C(=O)Nc1cc(F)c(OC2CC3CC(C3)C2)c(F)c1` (stereo not drawn) [Example 230, N-(4-(bicyclo[3.1.1]heptan-3-yloxy)-3,5-difluorophenyl)-5-ethyl-2-(3-ethyl-3-methoxyazetidin-1-yl)oxazole-4-carboxamide]: the EC50 with TFEB and on TRPML1 (setting [1]) was 10 to 1000 nM throughout.

On to `CCc1oc(N2CC(C)(C)C2)nc1C(=O)Nc1cc(F)c(N2CC3CC(C3)C2)c(F)c1` [Example 256, N-(4-(3-azabicyclo[3.1.1]heptan-3-yl)-3,5-difluorophenyl)-2-(3,3-dimethylazetidin-1-yl)-5-ethyloxazole-4-carboxamide], for which the EC50 in the assay on TFEB and on TRPML1 was 10 to 1000 nM throughout.

Turning to `CCC1(CC)CN(c2nc(C(=O)Nc3cc(C)c(OC4CC5CC(C5)C4)c(F)c3)c(CCF)o2)C1` (stereo not drawn) [Example 282, N-(4-(bicyclo[3.1.1]heptan-3-yloxy)-3-fluoro-5-methylphenyl)-2-(3,3-diethylazetidin-1-yl)-5-(2-fluoroethyl)oxazole-4-carboxamide], the EC50 in the assay with TFEB and on TRPML1 (setting [1]) was 10 to 1000 nM in each case.

For `O=C(Nc1ccc(N2CCCCC2)c(C(F)(F)F)c1)c1nc(N2CC3(C2)CC(F)(F)C3)oc1CC(F)(F)F` [Example 78, 2-{6,6-difluoro-2-azaspiro[3.3]heptan-2-yl}-N-[4-(piperidin-1-yl)-3-(trifluoromethyl)phenyl]-5-(2,2,2-trifluoroethyl)oxazole-4-carboxamide], the EC50 in the assay on TFEB and at TRPML1 (setting [1]) was 1000 to 10000 nM throughout.

Regarding `CCC1(OC)CN(c2nc(C(=O)Nc3cc(F)c(OC4CC5CCC4C5)c(F)c3)c(CC(F)(F)F)o2)C1` (stereo not drawn) [Example 150, N-(4-(bicyclo[2.2.1]heptan-2-yloxy)-3,5-difluorophenyl)-2-(3-ethyl-3-methoxyazetidin-1-yl)-5-(2,2,2-trifluoroethyl)oxazole-4-carboxamide], the EC50 in the assay on TFEB and at TRPML1 (setting [1]) was 10 to 1000 nM throughout.

Regarding `CCC1(CC)CN(c2nc(C(=O)Nc3cc(C)c(O[C@@H]4C[C@@H]5C[C@@H]5C4)c(F)c3)c(CC(F)(F)F)o2)C1` [Example 131, N-(4-(cis-bicyclo[3.1.0]hexan-3-yloxy)-3-fluoro-5-methylphenyl)-2-(3,3-diethylazetidin-1-yl)-5-(2,2,2-trifluoroethyl)oxazole-4-carboxamide], the EC50 with TFEB and on TRPML1 (setting [1]) was 10 to 1000 nM throughout.

With `COC1(C)CN(c2nc(C(=O)Nc3cc(C)c(NC4C5CCCC4CC5)c(F)c3)c(CC(F)(F)F)o2)C1` (stereo not drawn) [Example 195, N-(4-(bicyclo[3.2.1]octan-8-ylamino)-3-fluoro-5-methylphenyl)-2-(3-methoxy-3-methylazetidin-1-yl)-5-(2,2,2-trifluoroethyl)oxazole-4-carboxamide], the EC50 in the assay on TFEB and at TRPML1 (setting [1]) was 10 to 1000 nM each time.

The record behind these values is patent US12098145B2 (Libra Therapeutics, Inc., priority 2022, dated 2024).
